The values that follow come from patent publication EP4733303A1, “MUSCARINIC M4 RECEPTOR AGONIST AND USE THEREOF” (Haisco Pharmaceutical Group Co., Ltd., priority 2023, dated 2024).

pEC50: −log10 of the molar value.

The target in the test is T1, M4 receptor (Homo sapiens, UniProt P08173).
T1 construct: expressed in transfected cells; host or cells: CHO (M4-CHO cells)
T1 sequence (P08173 1-479): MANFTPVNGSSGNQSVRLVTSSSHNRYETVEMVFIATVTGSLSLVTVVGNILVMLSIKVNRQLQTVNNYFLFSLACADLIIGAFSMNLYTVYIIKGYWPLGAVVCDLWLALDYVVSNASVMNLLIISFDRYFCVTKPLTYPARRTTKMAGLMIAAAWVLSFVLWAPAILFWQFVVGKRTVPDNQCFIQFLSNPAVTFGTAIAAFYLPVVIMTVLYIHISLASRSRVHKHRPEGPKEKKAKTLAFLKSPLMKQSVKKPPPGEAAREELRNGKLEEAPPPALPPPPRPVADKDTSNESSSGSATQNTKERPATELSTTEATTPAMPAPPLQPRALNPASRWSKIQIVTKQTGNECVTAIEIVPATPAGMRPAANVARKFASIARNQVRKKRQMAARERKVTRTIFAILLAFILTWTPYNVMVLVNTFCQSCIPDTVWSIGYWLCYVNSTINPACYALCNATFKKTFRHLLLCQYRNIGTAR
The test is described as follows: PAM agonistic activity of compound on M4 receptor (FLIPR Calcium 6 assay in M4-CHO cells). It counts as cell-based. The settings on record: with acetylcholine (Ach), final concentration 3 nM. The procedure: • 1). Cell plating: M4-CHO cells were digested, collected, and resuspended. After cell counting, the cell suspension was seeded into a 384-well cell plate at a density of: 1.2 × 10^4 cells/25 µL/well. The cell plate was then cultured in a 37°C, 5% CO2 incubator for about 16-20 h. • 2). Day 2: Assay Buffer was prepared according to the instructions of the FLIPR Calcium 6 Assay Kit. Component A (20×) was thawed to room temperature and diluted with the Assay Buffer to prepare a loading buffer (1×), which was stored at room temperature until use. • 3). The culture medium was removed from the cell plate. 40 µL of the loading buffer (1×) was quickly added to each well. The cell plate was then centrifuged and incubated at 37°C in the dark for 120 min. • 4). Working solutions of the positive control compound and the test compounds were prepared. An acetylcholine (Ach) agonist compound solution was prepared (final concentration: 3 nM). The PAM compound and the Ach agonist solution were mixed at a 1 : 1 ratio, and the mixture was transferred into a 384-well compound source plate at 20 µL per well. • 5). The cell plate, the compound source plate, and the pipette tips were placed into the corresponding positions within the FLIPR instrument. 10 µL of the diluted compound from step 4 was added into each experimental well using the FLIPR Tetra. Data was collected at the wavelength of 515 nm-575 nm. • 6). The signal values were plotted against the compound concentrations. Nonlinear regression analysis was performed using GraphPad Prism software for curve fitting and EC50 calculation.
The experimental results are shown in Table 1, where A represents EC50 < […]; B represents 100 nM ≤ EC50 < 500 nM, and C represents 500 nM ≤ EC50. Table 1. Agonistic activity of compounds on M4 receptor
Take `Cc1cc(=O)n(C)c2c1CN(C(=O)CC1CN(c3ccnc(-n4ccc(F)n4)c3)C1)C2` [Compound 119]: the pEC50 is above 7.00.
Next, `Cc1cc(C)c2c(n1)CN(C(=O)CC1CN(c3ccnc(C(=O)c4cnn(C)c4)c3)C1)C2` [Compound 120]: above 7.00.
In the case of `C=C1CC(Oc2cc(N3CC(CC(=O)N4Cc5nc(C)cc(C)c5C4)C3)ccn2)C1` [Compound 121], the pEC50 is above 7.00.
`Cc1ccn(-c2cc(N3CC(CC(=O)N4Cc5nc(-c6cnn(C)c6)nc(C)c5C4)C3)ccn2)n1` [Compound 123]: the pEC50 was above 7.00.
`Cc1cc(C2CCOC2)nc2c1CN(C(=O)CC1CN(c3ccnc(C(F)(F)F)c3)C1)C2` (stereo not drawn) [Compound 125]: the pEC50 is above 7.00.
With `Cc1ncn(-c2cc(N3CC(CC(=O)N4Cc5c(C)cc(=O)n(C)c5C4)C3)ccn2)n1` [Compound 127], the pEC50 is above 7.00.
For the molecule `Cc1ncn(-c2cc(N3CC(CC(=O)N4Cc5nc(-c6cnn(C)c6)nc(C)c5C4)C3)ccn2)n1` [Compound 130], the pEC50 was above 7.00.
For the molecule `Cc1cc(=O)n(C)c2c1CN(C(=O)CC1CN(c3ccc4c(c3)CCC4=O)C1)C2` [Compound 131], the pEC50 is above 7.00.
As to `Cc1ccn(-c2cc(N3CC(CC(=O)N4Cc5c(C)cc(=O)n(C)c5C4)C3)cnn2)n1` [Compound 133], the pEC50 was above 7.00.
As to `Cc1cc(C)c2c(n1)CN(C(=O)CC1CN(c3ccnc(-n4ccc(C(F)F)n4)c3)C1)C2` [Compound 134], the pEC50 is above 7.00.
Turning to `COc1nc(C)c2c(n1)CN(C(=O)CC1CN(c3ccnc(OC4CC(F)(F)C4)c3)C1)C2` [Compound 137], the pEC50 was above 7.00.
For the molecule `Cc1cc(=O)n(C)c2c1CN(C(=O)CC1CN(c3ccnc(OC4CC4)c3)C1)C2` [Compound 138], the pEC50 was above 7.00.
As for `Cc1cc(=O)n(C)c2c1CN(C(=O)OC1CN(c3ccnc(OC4CC(F)(F)C4)c3)C1)C2` [Compound 139], the pEC50 was above 7.00.
Next, `Cn1c2c(c(F)cc1=O)CN(C(=O)CC1CN(c3ccnc(OC4CC(F)(F)C4)c3)C1)C2` [Compound 141]: above 7.00; `Cc1nc(-c2cnn(C)c2)nc2c1CN(C(=O)CC1CN(c3ccnc(OC4CC(F)(F)C4)c3)C1)C2` [Compound 143]: above 7.00; `Cc1nc(-c2ccnn2C)nc2c1CN(C(=O)CC1CN(c3ccnc(OC4CC(F)(F)C4)c3)C1)C2` [Compound 144]: above 7.00.
With `Cc1ncn(-c2cc(N3CC(CC(=O)N4Cc5nc(-c6ccnn6C)nc(C)c5C4)C3)ccn2)n1` [Compound 146] the figure was above 7.00; with `Cc1cc(-c2cnn(C)c2)nc2c1CN(C(=O)CC1CN(c3ccnc(OC4CC4)c3)C1)C2` [Compound 148], above 7.00.
With `Cc1cc(C)c2c(n1)CN(C(=O)CC1CN(c3cc(-n4ccc(F)n4)ncc3F)C1)C2` [Compound 149], the negative logarithm of the EC50 (pEC50) was above 7.00.
For `Cc1ncn(-c2cc(N3CC(CC(=O)N4Cc5nc(-c6cnn(C(F)F)c6)cc(C)c5C4)C3)ccn2)n1` [Compound 150], the pEC50 is above 7.00.
Consider `Cc1cc(-c2ccnn2C)nc2c1CN(C(=O)CC1CN(c3ccnc(OC4CC(F)(F)C4)c3)C1)C2` [Compound 158], for which the pEC50 was above 7.00.
For `Cc1cc(=O)n(C)c2c1CN(C(=O)CC1CN(c3ccnc(-n4ccc(C(F)(F)F)n4)c3)C1)C2` [Compound 160], the pEC50 is above 7.00.
As to `Cc1cc(-c2cnn(C(F)F)c2)nc2c1CN(C(=O)CC1CN(c3ccnc(C(F)(F)F)c3)C1)C2` [Compound 162], the pEC50 is above 7.00.
As to `Cc1ncn(-c2nc(C)c3c(n2)CN(C(=O)CC2CN(c4ccnc(OC5CC(F)(F)C5)c4)C2)C3)n1` [Compound 163], the pEC50 was above 7.00.
As to `C=C1CC(Oc2cc(N3CC(CC(=O)N4Cc5c(C)cc(=O)n(C)c5C4)C3)ccn2)C1` [Compound 165], the pEC50 was above 7.00.
For `C=C1CC(Oc2cc(N3CC(CC(=O)N4Cc5nc(-c6cnn(C)c6)cc(C)c5C4)C3)ccn2)C1` [Compound 166], the pEC50 is above 7.00.
Next, `Cc1nc(-c2cnn(C)c2)nc2c1CN(C(=O)CC1CN(c3ccnc(OC4CCOC4)c3)C1)C2` (stereo not drawn) [Compound 168]: above 7.00.
For the molecule `Cc1cc(-c2cnn(C)c2)nc2c1CN(C(=O)CC1CN(c3ccnc(OC4CCOC4)c3)C1)C2` (stereo not drawn) [Compound 169], the pEC50 is above 7.00.
Turning to `Cc1cc(-c2cnn(C)c2)nc2c1CN(C(=O)CC1CN(c3ccnc(OC4CCOC4)c3)C1)C2` (stereo not drawn) [Compound 170], the pEC50 was above 7.00.
Turning to `Cc1cc(-c2cnn(C)c2)nc2c1CN(C(=O)CC1CN(c3ccnc(Oc4cnn(C)c4)c3)C1)C2` [Compound 171], the pEC50 was above 7.00.
As for `Cc1ncn(-c2cc(C)c3c(n2)CN(C(=O)CC2CN(c4ccnc(C(F)(F)F)c4)C2)C3)n1` [Compound 172], the pEC50 is above 7.00.
Consider `Cc1nc(-c2cnn(C(F)F)c2)nc2c1CN(C(=O)CC1CN(c3ccnc(C(F)(F)F)c3)C1)C2` [Compound 173], for which the pEC50 is above 7.00.
With `Cc1ncc(-c2nc(C)c3c(n2)CN(C(=O)CC2CN(c4ccnc(C(F)(F)F)c4)C2)C3)s1` [Compound 174] the figure was above 7.00; with `Cc1c2c(n(C)c(=O)c1F)CN(C(=O)CC1CN(c3ccnc(OC4CC(F)(F)C4)c3)C1)C2` [Compound 175], above 7.00.
Consider `Cc1c2c(n(C)c(=O)c1F)CN(C(=O)CC1CN(c3ccnc(C(F)(F)F)c3)C1)C2` [Compound 176], for which the negative logarithm of the EC50 (pEC50) was above 7.00.
Regarding `Cc1c2c(n(C(F)F)c(=O)c1F)CN(C(=O)CC1CN(c3ccnc(OC4CC(F)(F)C4)c3)C1)C2` [Compound 177], the pEC50 was above 7.00.
With `Cc1c2c(n(C(F)F)c(=O)c1F)CN(C(=O)CC1CN(c3ccnc(C(F)(F)F)c3)C1)C2` [Compound 178] the figure was above 7.00; with `Cc1ccn(-c2cc(N3CC(CC(=O)N4Cc5c(C)cc(=O)n(C(F)F)c5C4)C3)ccn2)n1` [Compound 179], above 7.00.
As to `Cc1cc(=O)n(C(F)F)c2c1CN(C(=O)CC1CN(c3ccnc(OC4CCOC4)c3)C1)C2` (stereo not drawn) [Compound 180], the pEC50 was above 7.00.
With `Cc1cc(=O)n(C(F)F)c2c1CN(C(=O)CC1CN(c3ccnc(Oc4cnn(C)c4)c3)C1)C2` [Compound 182], the pEC50 was above 7.00.
Next, `C=C1CC(Oc2cc(N3CC(CC(=O)N4Cc5c(C)cc(=O)n(C(F)F)c5C4)C3)ccn2)C1` [Compound 184]: above 7.00; `Cc1cc(S(C)(=O)=O)nc2c1CN(C(=O)CC1CN(c3ccnc(OC4CC(F)(F)C4)c3)C1)C2` [Compound 188]: above 7.00; `Cc1cc(C)c2c(n1)CN(C(=O)CC1CN(c3ccnc(Cn4cc(C(F)(F)F)cn4)c3)C1)C2` [Compound 189]: above 7.00.
As to `Cc1c2c(n(C(F)F)c(=O)c1F)CN(C(=O)CC1CN(c3ccnc(OC4CC4)c3)C1)C2` [Compound 195], the pEC50 is above 7.00.
As for `Cc1c2c(n(C(F)F)c(=O)c1F)CN(C(=O)CC1CN(c3ccnc(OC4CCOC4)c3)C1)C2` (stereo not drawn) [Compound 198], the pEC50 was above 7.00.
With `Cc1c2c(n(C)c(=O)c1F)CN(C(=O)CC1CN(c3ccnc(OC4CCOC4)c3)C1)C2` (stereo not drawn) [Compound 199] the figure was above 7.00; with `Cc1cc(=O)n(C(F)F)c2c1CN(C(=O)CC1CN(c3ccnc(OC4CC(=C(F)F)C4)c3)C1)C2` (stereo not drawn) [Compound 200], above 7.00.
Regarding `Cc1c2c(n(C(F)F)c(=O)c1F)CN(C(=O)CC1CN(c3ccnc(OC4CC(=C(F)F)C4)c3)C1)C2` (stereo not drawn) [Compound 201], the pEC50 is above 7.00.
On to `Cc1cc(-c2cnn(C)c2)nc2c1CN(C(=O)CC1CN(c3nc(C4CC4)ncc3F)C1)C2` [Compound 204], for which the pEC50 was above 7.00.
Take `Cc1nc(-c2cnn(C)c2)nc2c1CN(C(=O)CC1CN(c3nc(C4CC4)ncc3F)C1)C2` [Compound 207]: the pEC50 was above 7.00.
Next, `Cc1ccn(-c2cc(N3CC(CC(=O)N4Cc5c(C)c(F)c(=O)n(C(F)F)c5C4)C3)ccn2)n1` [Compound 208]: above 7.00.
Regarding `Cc1ccn(-c2cc(N3CC(CC(=O)N4Cc5c(C)c(F)c(=O)n(C)c5C4)C3)ccn2)n1` [Compound 209], the pEC50 was above 7.00.
Next, `Cc1c2c(n(C)c(=O)c1F)CN(C(=O)CC1CN(c3ccnc(OC4CCOC4)c3)C1)C2` (stereo not drawn) [Compound 210]: above 7.00.
On to `Cc1ncn(-c2cc(N3CC(CC(=O)N4Cc5c(C)c(F)c(=O)n(C)c5C4)C3)ccn2)n1` [Compound 211], for which the pEC50 was above 7.00.
